Data reported in patent US9328099B2, “Cyanomethylpyrazole carboxamides as janus kinase inhibitors” (Merck Sharp & Dohme Corp., priority 2011, dated 2016).

Tests used:
[1] = target: JAK1 (Homo sapiens (Human), UniProt P23458); test: Jak Biochemical HTRF Assay, JAK1; settings: HTRF biochemical assay, GST-tagged catalytic domain; top concentration tested […]; read-out: JAK1 IC50
Description: (§1) Jak Biochemical HTRF Assay Protocol
(§2) Subsequent reagent additions employed an Agilent Bravo.

[2] = target: JAK2 (Homo sapiens (Human), UniProt O60674); test: Jak Biochemical HTRF Assay, JAK2; settings: HTRF biochemical assay, GST-tagged catalytic domain; top concentration tested […]
Chain of JAK2 (O60674 849-1124): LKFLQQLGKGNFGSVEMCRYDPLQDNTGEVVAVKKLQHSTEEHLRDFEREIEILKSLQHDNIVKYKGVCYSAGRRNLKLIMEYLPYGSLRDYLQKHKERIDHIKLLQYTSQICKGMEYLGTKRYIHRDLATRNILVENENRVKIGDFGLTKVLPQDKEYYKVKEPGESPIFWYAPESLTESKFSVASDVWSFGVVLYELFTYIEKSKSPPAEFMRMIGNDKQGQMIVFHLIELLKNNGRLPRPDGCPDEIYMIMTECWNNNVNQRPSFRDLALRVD
Description: as §1, §2

Chain of JAK1 (P23458 875-1153): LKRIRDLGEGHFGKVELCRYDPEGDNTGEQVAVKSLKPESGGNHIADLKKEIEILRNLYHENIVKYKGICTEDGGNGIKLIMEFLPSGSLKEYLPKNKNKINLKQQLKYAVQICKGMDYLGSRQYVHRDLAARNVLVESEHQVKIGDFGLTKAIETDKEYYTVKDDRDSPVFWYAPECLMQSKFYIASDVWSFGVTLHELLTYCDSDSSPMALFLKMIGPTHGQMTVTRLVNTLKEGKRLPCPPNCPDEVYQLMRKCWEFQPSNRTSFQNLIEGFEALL

Structure (SMILES)	IC50 [1]	IC50 [2]
CCOc1ccccc1CN1CCC(CC#N)(n2cc(C(N)=O)c(Nc3ccccc3)n2)CC1 [Example 21-16, 1-[4-(cyanomethyl)-1-(2-ethoxybenzyl)piperidin-4-yl]-3-(phenylamino)-1H-pyrazole-4-carboxamide]	0.069 µM	0.842 µM
N#CCC1(n2cc(C(N)=O)c(Nc3ccccc3)n2)CCN(Cc2cccc3ccccc23)CC1 [Example 21-8, 1-[4-(cyanomethyl)-1-(naphthalene-1-ylmethyl)piperidin-4-yl]-3-(phenylamino)-1H-pyrazole-4-carboxamide]	0.089 µM	1.3 µM
COCCOC(=O)N1CC(CC#N)(n2cc(C(N)=O)c(Nc3ccccc3)n2)C1 [Example 30-59, 2-methoxyethyl 3-[4-carbamoyl-3-(phenylamino)-1H-pyrazol-1-yl]-3-(cyanomethyl)azetidine-1-carboxylate]	0.015 µM	0.336 µM
CC(C)(C)OC(=O)N1CCC(CC#N)(n2cc(C(N)=O)c(Nc3ccc(C(=O)N4CCS(=O)(=O)CC4)cc3)n2)CC1 [Example 2-6, tert-butyl 4-[4-carbamoyl-3-({4-[(1,1-dioxidothiomorpholin-4-yl)carbonyl]phenyl}amino)-1H-pyrazol-1-yl]-4-(cyanomethyl)piperidine-1-carboxylate]	0.0005 µM	0.001 µM
N#CCC1(n2cc(C(N)=O)c(Nc3ccc(S(=O)(=O)C(F)F)cc3)n2)CCC(N2CCC(F)(F)CC2)CC1 (stereo not drawn) [Example 40-31, Cis or trans 1-[1-(cyanomethyl)-4-(4,4-difluoropiperidin-1-yl)cyclohexyl]-3-({4-[(difluoromethyl)sulfonyl]phenyl}amino)-1H-pyrazole-4-carboxamide]	0.0001 µM	0.002 µM
CN1CC(CC#N)(n2cc(C(N)=O)c(Nc3ccccc3)n2)C1 [Example 20, 1-[3-(Cyanomethyl)-1-methylazetidin-3-yl]-3-(phenylamino)-1H-pyrazole-4-carboxamide]	0.358 µM	1.48 µM
Cc1cc(C)cc(NC(=O)N2CC(CC#N)(n3cc(C(N)=O)c(Nc4ccccc4)n3)C2)c1 [Example 38-20, 1-{3-(cyanomethyl)-1-[(3,5-dimethylphenyl)carbamoyl]azetidin-3-yl}-3-(phenylamino)-1H-pyrazole-4-carboxamide]	0.019 µM	0.326 µM

The next lines start with the values.

IC50 [1]	IC50 [2]	Structure (SMILES)
0.013 µM	0.091 µM	CC(C)(C)C(=O)N1CCC(CC#N)(n2cc(C(N)=O)c(Nc3ccccc3)n2)CC1 [Example 34-3, 1-[4-(cyanomethyl)-1-(2,2-dimethylpropanoyl)piperidin-4-yl]-3-(phenylamino)-1H-pyrazole-4-carboxamide]
0.001 µM	0.057 µM	N#CCC1(n2cc(C(N)=O)c(Nc3ccnc(F)c3)n2)CCN(CC2CCCCC2)CC1 [Example 22-3, 1-[4-(cyanomethyl)-1-(cyclohexylmethyl)piperidin-4-yl]-3-[(2-fluoropyridin-4-yl)amino]-1H-pyrazole-4-carboxamide]
0.0002 µM	0.0007 µM	CC(C)(C)OC(=O)N1CCC(CC#N)(n2cc(C(N)=O)c(Nc3ccc(C(=O)N4CCOCC4)c(F)c3)n2)CC1 [Example 9-24, tert-butyl 4-(4-carbamoyl-3-{[3-fluoro-4-(morpholin-4-ylcarbonyl)phenyl]amino}-1H-pyrazol-1-yl)-4-(cyanomethyl)piperidine-1-carboxylate]
0.019 µM	0.208 µM	N#CCC1(n2cc(C(N)=O)c(Nc3ccccc3)n2)CCN(C/C=C/c2ccccc2)CC1 [Example 21-17, 1-{4-(cyanomethyl)-1-[(2E)-3-phenylprop-2-en-1-yl]piperidin-4-yl}-3-(phenylamino)-1H-pyrazole-4-carboxamide]
0.063 µM	0.94 µM	N#CCC1(n2cc(C(N)=O)c(Nc3ccnc(F)c3)n2)CCC(Nc2ccccc2Cl)CC1 (stereo not drawn) [Example 40-25, Cis or trans 1-{4-[(2-chlorophenyl)amino]-1-(cyanomethyl)cyclohexyl}-3-[(2-fluoropyridin-4-yl)amino]-1H-pyrazole-4-carboxamide]
0.083 µM	0.747 µM	N#CCC1(n2cc(C(N)=O)c(Nc3ccccc3)n2)CCN(CC#Cc2ccccc2)CC1 [Example 21-25, 1-[4-(cyanomethyl)-1-(3-phenylprop-2-yn-1-yl)piperidin-4-yl]-3-(phenylamino)-1H-pyrazole-4-carboxamide]
